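Grown in 96-well plates, cells were treated for 48 hours with each compound at five concentrations. Insufficient inhibition: endpoint recorded as highest concentration tested. GI50: concentration for 50% inhibition of growth.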 Calls of active or inactive are those of the source. Rule as the data show it: active = GI50 up to about 1.1 µM and inactive = higher.
Legend:
Assay in all cases: DTP human tumour cell line panel, 48 h
[1] = test system: CCRF-CEM
[2] = test system: A549
[3] = test system: CAKI-1
[4] = test system: MDA-MB-435
[5] = test system: OVCAR-8
[6] = test system: EKVX
[7] = test system: Malme-3M
[8] = test system: NCI-H226
[9] = test system: HCT-116
[10] = test system: NCI/ADR-RES
[11] = test system: TK-10
[12] = test system: HOP-92
[13] = test system: UO-31
[14] = test system: UACC-257
[15] = test system: OVCAR-3
[16] = test system: KM12
[17] = test system: SNB-75
[18] = test system: NCI-H460
[19] = test system: HT-29
[20] = test system: M14

SMILES | GI50 [1] | GI50 [2] | GI50 [3] | GI50 [4] | GI50 [5] | GI50 [6] | GI50 [7] | GI50 [8] | GI50 [9] | GI50 [10] | GI50 [11] | GI50 [12] | GI50 [13] | GI50 [14] | GI50 [15] | GI50 [16] | GI50 [17] | GI50 [18] | GI50 [19] | GI50 [20]
CN(C)CCNc1ccc(C(=O)NCCCN(C)CCCNC(=O)c2ccc(NCCN(C)C)c3c(=O)c4ccccc4[nH]c23)c2[nH]c3ccccc3c(=O)c12 | < 0.01 µM (active) | < 0.01 µM (active) | 5.6 µM (inactive) | 0.032 µM (active) | 0.0272 µM (active) | 0.478 µM (active) | 0.0467 µM (active) | 0.0199 µM (active) | < 0.01 µM (active) | 5.08 µM (inactive) | 0.828 µM (active) | 0.0724 µM (active) | 1.27 µM (inactive) | 0.968 µM (active) | 0.469 µM (active) | 0.0333 µM (active) | < 0.01 µM (active) | < 0.0163 µM (active) | < 0.01 µM (active) | 0.218 µM (active)
COc1cc(C(=O)NNC(=O)c2cc(Br)ccc2NC(=O)c2cccs2)cc(OC)c1OC | 18.1 µM (inactive) | 21.2 µM (inactive) | 29 µM (inactive) | 19.8 µM (inactive) | 19.1 µM (inactive) | 6.65 µM (inactive) | 23.2 µM (inactive) | 13.7 µM (inactive) | 18.7 µM (inactive) | 18.5 µM (inactive) | 25.3 µM (inactive) | 15.3 µM (inactive) | 14.4 µM (inactive) | 22.5 µM (inactive) | 24.2 µM (inactive) | 22.8 µM (inactive) | 4.91 µM (inactive) | 20.2 µM (inactive) | 19.5 µM (inactive) | 19.3 µM (inactive)
CCC1([N+](=O)[O-])CN(N=O)C1 | > 100 µM (inactive) | > 100 µM (inactive) | > 100 µM (inactive) | > 100 µM (inactive) | > 100 µM (inactive) | > 100 µM (inactive) | > 100 µM (inactive) | > 100 µM (inactive) | > 100 µM (inactive) | > 100 µM (inactive) | > 100 µM (inactive) | 34.4 µM (inactive) | > 100 µM (inactive) | > 100 µM (inactive) | > 100 µM (inactive) | > 100 µM (inactive) | > 100 µM (inactive) | > 100 µM (inactive) | > 100 µM (inactive) | > 100 µM (inactive)
